Article PMC4183567, “Cysteine Transport through Excitatory Amino Acid Transporter 3 (EAAT3)” (PLoS ONE, 2014)
Read-outs that look alike come from different tables or passages of the source.

Experiments:
EAAT3 [1] = target: T1, EAAT3 (Homo sapiens, UniProt P43005); experiment: Two-electrode voltage clamp transport currents in Xenopus oocytes expressing EAAT3; type: cell-based
T1 sequence (P43005 1-524): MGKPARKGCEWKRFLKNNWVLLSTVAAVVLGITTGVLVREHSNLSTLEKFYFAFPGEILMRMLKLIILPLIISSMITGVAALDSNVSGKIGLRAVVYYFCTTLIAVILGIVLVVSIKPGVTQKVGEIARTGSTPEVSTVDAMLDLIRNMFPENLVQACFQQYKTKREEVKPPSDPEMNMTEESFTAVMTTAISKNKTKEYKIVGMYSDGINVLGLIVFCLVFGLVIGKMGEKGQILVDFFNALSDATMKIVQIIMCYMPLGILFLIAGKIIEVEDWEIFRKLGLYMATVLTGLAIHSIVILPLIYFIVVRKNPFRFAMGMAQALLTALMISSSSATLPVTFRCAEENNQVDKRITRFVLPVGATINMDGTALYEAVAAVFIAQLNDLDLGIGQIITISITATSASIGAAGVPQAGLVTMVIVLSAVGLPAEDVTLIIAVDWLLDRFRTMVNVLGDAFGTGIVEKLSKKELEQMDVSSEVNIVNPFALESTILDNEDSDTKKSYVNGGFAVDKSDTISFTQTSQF
Description: (§1) mRNA from linearized pOTV-EAAT1, pOTV-EAAT2 and pOTV-EAAT3 was generated as previously described and resuspended in RNAase-free water and used for oocytes injections. Xenopus oocytes where injected with 50 nl of mRNA and incubated at 18°C in 96 mM NaCl, 2 mM KCl, 1.8 mM CaCl2, 1.0 mM MgCl2, 5 mM HEPES, pH 7.4 (ND96) supplemented with 2.5 mM Sodium Pyruvate and Gentamicyn for 2 to 3 days prior to using in electrophysiological recordings and radio-labeled transport experiments.
(§2) Oocytes were held at −60 mV, and currents elicited by 200 ms voltage steps between −120 mV and +60 mV were filtered at 2 kHz (−3dB) and digitalized with a sampling rate of 10 kHz using a Digidata AD/DA converter (Molecular Devices, Sunnyvale, CA, USA). Borosilicate pipets where filled with 3 M KCl and typical resistances where 0.2 to 1 MΩ. Transport currents were determined at −60 mV in a gluconate-based ND96 solution. In order to dialyze internal chloride, oocytes were incubated 12 to 24 hours in the gluconate solution. Anion currents were determined at positive potentials (+60 mV) after exchanging the external solution to NO3-based ND96 (replacement of 96 mM NaCl with 96 mM NaNO3) solution in the absence or in the presence of 1 mM external substrates. In experiments using cysteine as a substrate, all solutions contained 2 mM dithiothreitol (DTT). Data were analyzed with a combination of pClamp 9.2 (Axon Instrument) and Sigma Plot (Jandel Scientific, San Rafael, CA, USA). Whole cell current amplitudes are shown without any subtraction protocol. Current-voltage relationships were constructed by plotting the isochronal current 6 ms after the voltage step versus the membrane potential. All data are given as the mean ± standard deviation of the mean (SDM). For evaluation the statistical relevance, the Student’s t-Test was used with an α of 0.05.

EAAT2 [2] = target: T2, EAAT2 (Homo sapiens, UniProt P43004); experiment: mEGFPpH fluorescence imaging of intracellular pH in HEK293 cells co-expressing EAAT2; type: cell-based; parameters: expressed in transfected cells; host or cells: HEK293; conditions: for mEGFPpH fluorescence change: 1 mM perfusion
T2 sequence (P43004 whole entry, the tested form may be a part): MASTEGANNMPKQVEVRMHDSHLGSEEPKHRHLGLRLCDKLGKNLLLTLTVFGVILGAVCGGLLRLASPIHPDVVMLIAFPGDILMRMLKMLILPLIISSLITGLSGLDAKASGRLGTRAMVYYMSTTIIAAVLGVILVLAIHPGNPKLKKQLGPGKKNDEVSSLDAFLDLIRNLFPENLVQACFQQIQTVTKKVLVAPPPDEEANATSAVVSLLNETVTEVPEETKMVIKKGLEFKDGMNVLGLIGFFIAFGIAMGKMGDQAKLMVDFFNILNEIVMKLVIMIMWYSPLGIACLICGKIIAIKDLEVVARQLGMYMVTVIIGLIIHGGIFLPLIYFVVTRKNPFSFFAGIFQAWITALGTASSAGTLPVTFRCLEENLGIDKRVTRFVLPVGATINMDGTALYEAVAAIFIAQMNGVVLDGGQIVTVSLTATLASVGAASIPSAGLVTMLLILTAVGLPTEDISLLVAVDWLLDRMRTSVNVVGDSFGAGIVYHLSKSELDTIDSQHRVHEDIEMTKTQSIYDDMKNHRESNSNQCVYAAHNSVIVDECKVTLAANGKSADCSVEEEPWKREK

EAAT3 [3] = target: T1, EAAT3; experiment: Substrate inhibition of [3H]-L-glutamate uptake in HEK293 cells expressing EAAT3; type: cell-based; parameters: expressed in transfected cells; host or cells: HEK293
Description: (§3) For radiolabeled transport experiments, 2×10^6 cells were transfected in 1 mL of Opti-Mem (Life Technologies) using 6 µL of Lipofectamine 2000 (Invitrogen) with 1 µg pCMV-EAAT2 or pCMV-EAAT3 DNA and plated at 5×10^4 cells/well in 24 well Costar (Corning) plates with 0.5 mL DMEM culture media prepared as above. Following transfection and plating, cells were cultured 2–3 days prior to [^3H]-L-Glutamate transport experiments.
(§4) Transport was allowed to proceed for 10 min and was terminated by 3 washes with cold perfusion buffer. Cells were lysed with 1% SDS/0.1N NaOH and radioactivity determined by scintillation counting. Data analysis was performed using Graphpad Prism (Graphpad Software Inc.).

EAAT2 [4] = target: T2, EAAT2; experiment: Two-electrode voltage clamp transport currents in Xenopus oocytes expressing EAAT2; type: cell-based; conditions: 1 mM substrate vs 1 mM glutamate, -60 mV
Description: as §1
as §2, with “In experiments using cysteine as a substrate, all solutions contained 2 mM dithiothreitol (DTT).” left out, “Whole cell current amplitudes are shown without any subtraction protocol. Current-voltage relationships were constructed by plotting the isochronal current 6 ms after the voltage step versus the membrane potential. All data are given as the mean ± standard deviation of the mean (SDM). For evaluation the statistical relevance, the Student’s t-Test was used with an α of 0.05.” left out

[5] = amino acid side chain; cited from earlier work
[6] = Protonation state calculated with the Henderson-Hasselbalch equation; type: physicochemical; conditions: physiological pH
EAAT3 [7] = target: T1, EAAT3; experiment: mEGFPpH fluorescence imaging of intracellular pH in HEK293 cells co-expressing EAAT3
Description: Cells expressing mEGFPpH were imaged with a Zeiss Axiovert 135T inverted microscope with a 40X NeoFluar oil immersion objective (NA1.3). A Lambda DG4 (Sutter Instrument Co.) equipped with a xenon arc lamp was used for high-speed excitation wavelength switching. Images were collected using either a Quantix (Roper Scientific, Tucson, AZ) or an Orca ER (Hammamatsu Co.) cooled CCD. For pH imaging experiments, the fluorescence filters (Omega Optical) were: excitation 405±20 and 485±7.5; dichroic 400-480-585DLRP; emission 510±11.5. Software control and data acquisition were accomplished using Axon Imaging Workbench (INDEC Biosystems) or OpenLab acquisition software (Improvision, Perkin Elmer). Cells were incubated at room temperature with continuous perfusion using standard buffer containing (in mM): 146 NaCl, 5 KCl, 5 HEPES, 2.5 CaCl2 and 1.2 MgCl2 at pH 7.35 with additions (substrates etc.) as indicated in figure legends. Acquisition exposure times were identical for both 405 nm and 485 nm excitation wavelengths adjusted so that the 510 emission was not saturated for either excitation wavelength. Prior to perfusion with buffers containing substrates, cells were perfused in standard buffer to achieve a stable base line. Fluorescence was reported as the ratio of fluorescence at 510 nm by excitation with 485 and 405 nm wavelengths (F485/F405).

EAAT2 [8] = target: T2, EAAT2; experiment: Substrate inhibition of [3H]-L-glutamate uptake in HEK293 cells expressing EAAT2; type: cell-based; parameters: expressed in transfected cells; host or cells: HEK293
Description: as §3, §4

EAAT3 [9] = target: T1, EAAT3; experiment: Substrate-gated anion (NO3) currents in Xenopus oocytes expressing EAAT3; type: cell-based; conditions: 1 mM substrate; for anion current amplitude at +60 mV: NO3-based solution, Figure 2C, n = 4
Description: as §1, §2

EAAT1 = target: T3, EAAT1 (Homo sapiens, UniProt P43003); experiment: Two-electrode voltage clamp transport currents in Xenopus oocytes expressing EAAT1; type: cell-based; conditions: 1 mM substrate vs 1 mM glutamate, -60 mV
T3 construct: expressed in transfected cells; host or cells: Xenopus oocytes injected with mRNA
T3 sequence (P43003 whole entry): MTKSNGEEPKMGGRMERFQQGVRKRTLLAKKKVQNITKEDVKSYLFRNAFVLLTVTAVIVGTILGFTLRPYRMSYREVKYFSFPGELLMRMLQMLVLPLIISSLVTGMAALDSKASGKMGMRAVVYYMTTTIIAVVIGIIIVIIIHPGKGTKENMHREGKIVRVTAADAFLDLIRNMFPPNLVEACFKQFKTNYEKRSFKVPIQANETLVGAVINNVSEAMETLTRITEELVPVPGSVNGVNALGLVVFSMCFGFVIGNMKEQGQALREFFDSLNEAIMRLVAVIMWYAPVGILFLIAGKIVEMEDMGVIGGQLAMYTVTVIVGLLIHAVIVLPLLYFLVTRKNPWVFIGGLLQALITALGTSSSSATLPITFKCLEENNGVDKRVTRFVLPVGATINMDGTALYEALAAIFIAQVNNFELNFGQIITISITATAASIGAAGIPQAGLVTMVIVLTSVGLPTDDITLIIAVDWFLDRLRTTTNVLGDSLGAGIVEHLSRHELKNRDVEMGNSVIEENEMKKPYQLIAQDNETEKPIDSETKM
Description: as §1
as §2, with “In experiments using cysteine as a substrate, all solutions contained 2 mM dithiothreitol (DTT).” left out, “Whole cell current amplitudes are shown without any subtraction protocol. Current-voltage relationships were constructed by plotting the isochronal current 6 ms after the voltage step versus the membrane potential. All data are given as the mean ± standard deviation of the mean (SDM). For evaluation the statistical relevance, the Student’s t-Test was used with an α of 0.05.” left out

EAAT3 and ASCT1 [10] = target: T4, EAAT3 and ASCT1 (Homo sapiens, UniProt P43005); experiment: Release of preloaded [3H]-L-glutamate from Xenopus oocytes co-expressing EAAT3 and ASCT1; type: cell-based
T4 construct: expressed in transfected cells; host or cells: Xenopus oocytes
T4 sequence (P43005 1-524): T1 sequence (P43005 1-524)
Description: as §1
(§5) Oocytes were washed 3 times in ND96 buffer followed by incubation for 10 min with non-radiolabeled substrates as indicated. The supernatant was removed and collected for scintillation counting, while the oocytes were lysed in 1% sodium dodecylsulfate (SDS). The oocytes lysate and supernatant were counted separately by liquid scintillation counting to determine both retained and released radioactivity respectively. Percent of released radioactivity was determined as a function of the released/(retained + released).

EAAT3 and ASCT1 [11] = target: T4, EAAT3 and ASCT1; experiment: Release of preloaded [35S]-L-cysteine from Xenopus oocytes co-expressing EAAT3 and ASCT1; type: cell-based
Description: mRNA from linearized pOTV-EAAT1, pOTV-EAAT2 and pOTV-EAAT3 was generated as previously described and resuspended in RNAase-free water and used for oocytes injections.
as §5

EAAT3 [12] = target: T1, EAAT3; experiment: Glutamate inhibition of [35S]-L-cysteine uptake in Xenopus oocytes expressing EAAT3; type: cell-based; parameters: expressed in transfected cells; host or cells: HEK293
Description: as §1
Cysteine transport was measured for 10 min in Xenopus oocytes with serial dilution of a mixture of 10 mM cysteine and 20 nM [^35S]-L-cysteine in ND96. Transport was terminated by three washes of ND96, after which accumulated radiolabel was quantitated by liquid scintillation counting. […] Transport was terminated by three washes in ND96 followed by liquid scintillation counting.

EAAT3 and ASCT1 [13] = experiment: Substrate-gated NO3 currents in Xenopus oocytes co-expressing EAAT3 and ASCT1; type: cell-based, human; conditions: 1 mM substrate, oocytes co-expressing EAAT3 and ASCT1, n = 4
Description: as §1
as §2, with “In experiments using cysteine as a substrate, all solutions contained 2 mM dithiothreitol (DTT).” left out, “Whole cell current amplitudes are shown without any subtraction protocol. Current-voltage relationships were constructed by plotting the isochronal current 6 ms after the voltage step versus the membrane potential. All data are given as the mean ± standard deviation of the mean (SDM). For evaluation the statistical relevance, the Student’s t-Test was used with an α of 0.05.” left out

[14] = substrate: N[C@@H](CCC(=O)O)C(=O)O; experiment: cells, lysate or membranes; type: cell-based, human; conditions: other: similarly transfected HEK293 cells
Description: as §3

[15] = substrate: N[C@@H](C[SeH])C(=O)O; experiment: Two-electrode voltage clamp transport currents in Xenopus oocytes expressing EAAT3; type: cell-based, human; conditions: other: -60 mV, normalized transport current vs concentration, n = 6; pH 7.4; 18.0 °C
Description: as §1
as §2, with “In experiments using cysteine as a substrate, all solutions contained 2 mM dithiothreitol (DTT).” left out, “Whole cell current amplitudes are shown without any subtraction protocol. Current-voltage relationships were constructed by plotting the isochronal current 6 ms after the voltage step versus the membrane potential. All data are given as the mean ± standard deviation of the mean (SDM). For evaluation the statistical relevance, the Student’s t-Test was used with an α of 0.05.” left out

[16] = substrate: N[C@@H](CCC(=O)O)C(=O)O; experiment: cells, lysate or membranes; conditions: other: slope normalized to 1 mM glutamate, 0.5 µM to 2 mM glutamate; pH 7.35; 37.0 °C
[17] = 1 mM perfusion, EAAT3 HEK293 cells

N[C@@H](C[SeH])C(=O)O [selenocysteine, L-selenocysteine]
inward transport current (EAAT3 [1]; 1 µM selenocysteine perfusion, Figure 2A): 20 nA | transport current amplitude relative to glutamate transport current (EAAT3 [1]; 1 mM substrate vs 1 mM glutamate, EAAT3 oocytes, -60 mV): 95.6±14% | mEGFPpH fluorescence change (EAAT2 [2]): fluorescence decrease similar in magnitude to that observed for glutamate | slope of fluorescence change normalized to that of 100 µM glutamate (EAAT2 [2]; selenocysteine at 100 µM): 0.85±0.02 | IC50 (EAAT3 [3]): 71 ± 10 µM | fold lower IC50 than for cysteine (EAAT3 [3]; EAAT3 HEK293 cells): approximately 10 fold | inhibition at 1000 µM (EAAT3 [3]; HEK293, read-out: inhibition of glutamate uptake): > 90% | transport current amplitude relative to glutamate transport current (EAAT2 [4]): 72.1±17% | side chain pKa [5]: 5.3 | fraction in deprotonated state [6]: > 99% | mEGFPpH fluorescence change (EAAT3 [7]; [17]): fluorescence decrease | slope of fluorescence change normalized to that of 100 µM glutamate (EAAT3 [7]; EAAT3 HEK293 cells, selenocysteine at 100 µM, cysteine change opposite in direction): 0.86±0.03 | IC50 (EAAT2 [8]): 46 ± 12 µM | inhibition at 1000 µM (EAAT2 [8]; HEK293, read-out: inhibition of glutamate transport): ~90% | anion current amplitude at +60 mV (EAAT3 [9]): 1.72±0.4 µA | transport current amplitude relative to glutamate transport current (EAAT1): 89.5±6.7%

N[C@@H](CCC(=O)O)C(=O)O [glutamate, L-glutamate]
mEGFPpH fluorescence change (EAAT2 [2]): significant quench of mEGFPpH fluorescence | release of loaded [3H]-L-glutamate (EAAT3 and ASCT1 [10]; 100 µM extracellular substrate): 5% | release of preloaded [35S]-L-cysteine (EAAT3 and ASCT1 [11]; 100 µM extracellular substrate, 10 min): less than 2% | inhibition at 100 µM (EAAT3 [12]; pH 6.9, read-out: inhibition of cysteine transport): 40% | inhibition at 100 µM (EAAT3 [12]; pH 6.9, read-out: inhibition of cysteine uptake): ~75% | mEGFPpH fluorescence change (EAAT3 [7]; 0.5 µM perfusion, EAAT3 HEK293 cells): no observable fluorescence changes from baseline | mEGFPpH fluorescence change (EAAT3 [7]; [17]): fluorescence decrease | anion current amplitude at +60 mV (EAAT3 [9]): 1.78±0.4 µA | average anion current amplitude at +60 mV (EAAT3 [9]; NaNO3, oocytes expressing EAAT3 alone, Figure 7C, n = 6): 2.2±0.12 µA | macroscopic anion current amplitude at +60 mV (EAAT3 and ASCT1 [13]): 1.1±0.1 µA

N[C@H](C(=O)O)[C@H](OCc1ccccc1)C(=O)O [TBOA]
effect on [3H]-L-glutamate release induced by K+ containing buffer (EAAT3 and ASCT1 [10]; TBOA co-application, data not shown): blocking this release | effect on [3H]-L-glutamate release induced by 100 µM L-glutamate (EAAT3 and ASCT1 [10]; TBOA co-incubation): blocked | effect on [3H]-L-glutamate release induced by cysteine (EAAT3 and ASCT1 [10]; TBOA co-incubation): blocked | effect on [35S]-L-cysteine release in presence of 100 µM glutamate (EAAT3 and ASCT1 [11]; TBOA co-incubation): not significantly inhibited | effect on [35S]-cysteine release induced by 300 µM cysteine (EAAT3 and ASCT1 [11]; TBOA co-incubation): not inhibited | effect on cysteine-induced mEGFPpH fluorescence increase (EAAT3 [7]; 100 µM TBOA co-applied with 1 mM cysteine): blocked | effect on glutamate-induced mEGFPpH fluorescence changes (EAAT3 [7]; co-application with glutamate, data not shown): blocked

B1: EAAT3 (Homo sapiens) (protein)
chain: T1 sequence (P43005 1-524)
notes: expressed in transfected cells; host or cells: HEK293
Km [14]: 70 µM | Km [15]: 7.14 ± 0.3 µM | Km [16]: 30 µM
